Measurements as given in BigSolDB 2.1.

O=C1C=CC(=O)N1c1cc(F)c(Br)c(F)c1
Details	solubility (mole fraction)
in THF, 285 K	0.0148
in THF, 288.45 K	0.0162
in THF, 291.55 K	0.0176
in THF, 294.25 K	0.0185
in THF, 297.55 K	0.02
in THF, 302.8 K	0.0228
in THF, 306.65 K	0.0249
in THF, 310.8 K	0.0275
in THF, 315 K	0.0303
in THF, 318.45 K	0.0329
in THF, 321.45 K	0.0355
in THF, 324.65 K	0.0383
in THF, 327.65 K	0.0409
in THF, 330.35 K	0.0437
in THF, 333.65 K	0.047
in THF, 336.25 K	0.0497
in acetone, 287.65 K	0.0071
in acetone, 291.85 K	0.0081
in acetone, 295.55 K	0.0092
in acetone, 298.35 K	0.01
in acetone, 301.25 K	0.0109
in acetone, 304.55 K	0.012
in acetone, 307.6 K	0.0131
in acetone, 309.45 K	0.0139
in acetone, 311.95 K	0.0152
in acetone, 313.95 K	0.0159
in acetone, 316.55 K	0.0174
in acetone, 319.55 K	0.019
in acetone, 321.45 K	0.0202
in acetone, 323.35 K	0.0214
in acetone, 325.15 K	0.0225
in acetonitrile, 291.95 K	0.0028
in acetonitrile, 296.65 K	0.0033
in acetonitrile, 299.25 K	0.0037
in acetonitrile, 302.45 K	0.004
in acetonitrile, 304.85 K	0.0044
in acetonitrile, 307.15 K	0.0049
in acetonitrile, 311.55 K	0.0057
in acetonitrile, 316.95 K	0.007
in acetonitrile, 320.15 K	0.0078
in acetonitrile, 325.45 K	0.0095
in acetonitrile, 328.55 K	0.0107
in acetonitrile, 332.05 K	0.0119
in acetonitrile, 338.65 K	0.0146
in acetonitrile, 341.65 K	0.0165
in acetonitrile, 347.25 K	0.0198
in acetonitrile, 350.15 K	0.0217
in chloroform, 289.25 K	0.0055
in chloroform, 294.85 K	0.0066
in chloroform, 296.65 K	0.0069
in chloroform, 300.85 K	0.0078
in chloroform, 302.75 K	0.0082
in chloroform, 305.65 K	0.0092
in chloroform, 307.45 K	0.0096
in chloroform, 309.55 K	0.0101
in chloroform, 311.65 K	0.0108
in chloroform, 315.35 K	0.012
in chloroform, 318.65 K	0.0132
in chloroform, 322.15 K	0.0146
in chloroform, 324.65 K	0.0157
in chloroform, 326.45 K	0.0166
in chloroform, 328.35 K	0.0176
in chloroform, 330.65 K	0.0188
in ethanol, 288.65 K	0.0003
in ethanol, 293.59 K	0.0003
in ethanol, 299.85 K	0.0004
in ethanol, 305.72 K	0.0006
in ethanol, 311.15 K	0.0008
in ethanol, 318.15 K	0.0011
in ethanol, 324.35 K	0.0014
in ethanol, 327.85 K	0.0016
in ethanol, 332.95 K	0.002
in ethanol, 336.05 K	0.0023
in ethanol, 339.65 K	0.0027
in ethanol, 341.85 K	0.003
in ethanol, 344.15 K	0.0033
in ethanol, 346.15 K	0.0036
in ethanol, 347.75 K	0.0039
in pyridine, 285.55 K	0.0116
in pyridine, 289.66 K	0.0129
in pyridine, 293.95 K	0.0144
in pyridine, 297.15 K	0.0154
in pyridine, 300.85 K	0.0169
in pyridine, 304.65 K	0.0186
in pyridine, 310.05 K	0.0214
in pyridine, 315.65 K	0.0246
in pyridine, 318.65 K	0.0265
in pyridine, 322.55 K	0.0291
in pyridine, 328.45 K	0.0341
in pyridine, 334.15 K	0.0394
in pyridine, 337.95 K	0.0432
in pyridine, 340.65 K	0.0462
in pyridine, 344.85 K	0.0514
in pyridine, 346.35 K	0.0533
